Reference: patent publication US11931424B2, “Combination MCL-1 inhibitors with anti-body drug conjugates” (Gilead Sciences, Inc., priority 2021, dated 2024)

Test system: panel of breast cancer cell lines
Assay: Compound A with targeted agents and chemotherapies, 72-hour in vitro proliferation assays
Type: cell-based
[1] = BT-20 cell line, compound A × partner, 72-hour proliferation
[2] = CAL-51 cell line, compound A × partner, 72-hour proliferation
[3] = CAL-85-1 cell line, compound A × partner, 72-hour proliferation
[4] = CAL-120 cell line, compound A × partner, 72-hour proliferation
[5] = CAL-148 cell line, compound A × partner, 72-hour proliferation
[6] = CAMA-1 cell line, compound A × partner, 72-hour proliferation
[7] = DU-4475 cell line, compound A × partner, 72-hour proliferation
[8] = EVSA-T cell line, compound A × partner, 72-hour proliferation
[9] = HCC38, compound A × partner, 72-hour proliferation
[10] = HCC70, compound A × partner, 72-hour proliferation
[11] = HCC1143 cell line, compound A × partner, 72-hour proliferation
[12] = HCC1569, compound A × partner, 72-hour proliferation
[13] = HCC1806, compound A × partner, 72-hour proliferation
[14] = HCC1937, compound A × partner, 72-hour proliferation
[15] = HCC1954, compound A × partner, 72-hour proliferation
[16] = HCC2218, compound A × partner, 72-hour proliferation
[17] = HDQ-P1, compound A × partner, 72-hour proliferation
[18] = HMC-1-8, compound A × partner, 72-hour proliferation
[19] = JIMT-1, compound A × partner, 72-hour proliferation
[20] = KPL-1, compound A × partner, 72-hour proliferation
[21] = MCF7 cells, Compound A × partner agent, 72-hour proliferation

## CCN1CCN(Cc2ccc(Nc3ncc(F)c(-c4cc(F)c5nc(C)n(C(C)C)c5c4)n3)nc2)CC1 [Abemaciclib]
[1]
  Best CI: 0.79
  Bliss Volume: 3.95
  HSA volume: 5.53
  Loewe Volume: 5.32
[2]
  Best CI: 1.31
  Bliss Volume: 1.55
  HSA volume: −0.56
  Loewe Volume: 2.06
  Synergy Score: 2.51
[3]
  Best CI: 0.77
  Bliss Volume: 2.60
  HSA volume: 3.28
  Loewe Volume: 3.04
  Synergy Score: 6.47
[4]
  Best CI: 1.78
  Bliss Volume: −5.16
  HSA volume: −5.98
  Loewe Volume: −5.00
  Synergy Score: 1.03
[5]
  Best CI: 0.70
  Bliss Volume: 6.48
  HSA volume: 5.91
  Loewe Volume: 6.28
  Synergy Score: 15.50
[6]
  Best CI: 0.32
  Bliss Volume: −6.25
  HSA volume: −10.24
  Loewe Volume: −10.33
  Synergy Score: 1.56
[7]
  Best CI: 1.25
  Bliss Volume: 6.92
  HSA volume: 5.32
  Loewe Volume: 5.72
  Synergy Score: 5.07
[8]
  Best CI: 0.64
  Bliss Volume: 0.41
  HSA volume: −2.86
  Loewe Volume: −2.48
  Synergy Score: 0.77
[9]
  Best CI: 0.83
  Bliss Volume: −4.64
  HSA volume: −4.71
  Loewe Volume: −4.54
  Synergy Score: 6.14
[10]
  Best CI: 0.92
  Bliss Volume: 10.18
  HSA volume: 6.99
  Loewe Volume: 8.33
  Synergy Score: 18.15
[11]
  Best CI: 0.41
  Bliss Volume: 10.33
  HSA volume: 2.87
  Loewe Volume: 9.43
  Synergy Score: 7.43
[12]
  Best CI: 0.18
  Bliss Volume: 14.07
  HSA volume: 13.17
  Loewe Volume: 14.38
  Synergy Score: 19.73
[13]
  Bliss Volume: 4.89
  HSA volume: 0.30
  Loewe Volume: 3.10
  Synergy Score: 4.43
[14]
  Best CI: 0.26
  Bliss Volume: 16.67
  Loewe Volume: 16.44
  Synergy Score: 28.56
[15]
  Best CI: 0.89
  Bliss Volume: 1.45
  HSA volume: −0.39
  Loewe Volume: −1.29
  Synergy Score: 12.74
[16]
  Best CI: 1.44
  Bliss Volume: −2.40
  HSA volume: −5.74
  Loewe Volume: −6.61
  Synergy Score: 4.14
[17]
  Best CI: 0.82
  Bliss Volume: −0.79
  HSA volume: −0.19
  Loewe Volume: 0.43
  Synergy Score: 2.48
[18]
  Best CI: 0.30
  Bliss Volume: 24.27
  HSA volume: 13.46
  Loewe Volume: 13.14
  Synergy Score: 24.23
[19]
  Best CI: 1.23
  Bliss Volume: 1.74
  HSA volume: 1.30
  Loewe Volume: 1.54
  Synergy Score: 1.34
[20]
  Best CI: 0.77
  Bliss Volume: −3.02
  HSA volume: −1.63
  Loewe Volume: −2.87
[21]
  Best CI: 1.06
  Bliss Volume: 4.62
  HSA volume: 4.76
  Synergy Score: 8.46

## CC1(C)CCC(CN2CCN(c3ccc(C(=O)NS(=O)(=O)c4ccc(NCC5CCOCC5)c([N+](=O)[O-])c4)c(Oc4cnc5[nH]ccc5c4)c3)CC2)=C(c2ccc(Cl)cc2)C1 [ABT-199]
72 h
  Best CI: 1.23
  Bliss Volume: −1.15
  HSA volume: −2.69
  Loewe Volume: −0.11
  Synergy Score: 3.31
[1]
  Best CI: 0.62
  Bliss Volume: 6.83
  HSA volume: 5.47
  Loewe Volume: 5.94
  Synergy Score: 13.39
[2]
  Best CI: 0.58
  Bliss Volume: 0.44
  HSA volume: −2.62
  Loewe Volume: 0.83
  Synergy Score: 0.56
[3]
  Best CI: 0.83
  Bliss Volume: −1.49
  HSA volume: −2.11
  Loewe Volume: −1.27
  Synergy Score: 1.08
[4]
  Best CI: 0.85
  Bliss Volume: 3.85
  HSA volume: −1.21
  Loewe Volume: −0.16
  Synergy Score: 0.62
[5]
  Best CI: 0.47
  Bliss Volume: 3.32
  HSA volume: −0.66
  Loewe Volume: 3.11
  Synergy Score: 2.74
[6]
  Best CI: 0.38
  Bliss Volume: 8.30
  HSA volume: 4.83
  Loewe Volume: 8.10
[7]
  Best CI: 1.15
  Bliss Volume: 10.43
  HSA volume: 8.46
  Loewe Volume: 10.37
  Synergy Score: 10.64
[8]
  Best CI: 1.07
  Bliss Volume: 1.29
  HSA volume: −0.86
  Loewe Volume: 0.99
  Synergy Score: 4.67
[9]
  Best CI: 0.77
  Bliss Volume: −3.14
  HSA volume: −0.71
  Loewe Volume: 0.50
  Synergy Score: 5.65
[10]
  Best CI: 0.43
  Bliss Volume: 15.68
  HSA volume: 14.46
  Loewe Volume: 15.44
  Synergy Score: 28.95
[11]
  Best CI: 0.82
  Bliss Volume: 2.43
  HSA volume: −2.65
  Loewe Volume: −1.50
  Synergy Score: 3.01
[12]
  Best CI: 0.51
  Bliss Volume: 15.86
  HSA volume: 14.50
  Loewe Volume: 16.04
  Synergy Score: 14.35
[13]
  Best CI: 0.83
  Bliss Volume: 3.80
  HSA volume: 4.70
  Loewe Volume: 5.23
  Synergy Score: 6.31
[14]
  Best CI: 0.22
  Bliss Volume: 8.42
  HSA volume: 2.68
  Loewe Volume: 4.59
  Synergy Score: 1.43
[15]
  Best CI: 0.60
  Bliss Volume: 12.55
  HSA volume: 10.72
  Loewe Volume: 12.18
  Synergy Score: 17.16
[16]
  Best CI: 0.43
  Bliss Volume: 7.82
  HSA volume: 8.19
  Loewe Volume: 7.59
  Synergy Score: 15.06
[17]
  Best CI: 0.04
  Bliss Volume: 1.77
  HSA volume: 0.38
  Loewe Volume: 1.74
  Synergy Score: 0.96
[18]
  Best CI: 0.90
  Bliss Volume: 6.70
  HSA volume: 5.15
  Loewe Volume: 6.08
  Synergy Score: 9.51
[19]
  Best CI: 0.14
  Bliss Volume: −1.41
  HSA volume: −2.60
  Loewe Volume: −1.93
  Synergy Score: 0.53
[21]
  Synergy Score: 1.43
